Data reported in US20070155707A1 (Kadmus Pharmaceuticals, Inc., priority 2005, published 2007).
pIC50: −log10 of the molar value.

How the values were obtained:
[1] = molecular target: T1, fatty acid amide hydrolase (FAAH) (Homo sapiens, UniProt O00519); experiment: FAAH LC-MS/MS screening assay, IC50 determination (anandamide hydrolysis by human liver microsomes); type: biochemical; details: inhibition of FAAH activity
T1 construct: 25 μL of human liver microsomes (31.3 μg); from tissue; host or cells: human liver microsomes
T1 sequence (O00519 1-579): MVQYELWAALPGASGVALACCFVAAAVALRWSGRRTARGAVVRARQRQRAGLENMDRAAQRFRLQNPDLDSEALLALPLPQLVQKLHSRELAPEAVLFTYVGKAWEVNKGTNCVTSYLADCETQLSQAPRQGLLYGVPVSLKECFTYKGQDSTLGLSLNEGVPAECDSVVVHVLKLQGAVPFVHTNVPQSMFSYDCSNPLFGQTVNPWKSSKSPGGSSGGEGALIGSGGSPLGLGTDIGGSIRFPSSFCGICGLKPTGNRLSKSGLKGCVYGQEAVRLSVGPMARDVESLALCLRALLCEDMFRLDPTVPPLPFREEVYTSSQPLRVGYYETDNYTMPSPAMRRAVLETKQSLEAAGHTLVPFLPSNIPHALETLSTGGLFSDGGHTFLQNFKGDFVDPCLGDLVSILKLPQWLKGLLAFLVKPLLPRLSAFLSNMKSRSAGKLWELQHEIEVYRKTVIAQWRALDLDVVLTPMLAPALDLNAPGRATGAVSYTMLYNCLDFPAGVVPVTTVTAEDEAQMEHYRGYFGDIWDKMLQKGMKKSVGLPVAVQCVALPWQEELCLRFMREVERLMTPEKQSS
Method: For determining IC50 values for candidate FAAH inhibitor compounds, the above method is used with an adjusted FAAH inhibitor concentration. In the IC50 assay, the FAAH inhibitor is added at a concentration range of approximately 3 μM to 0.03 nM. The final calculation of IC50 is determined by first transforming the concentrations by “X=log(X)” and then analyzing the data with a sigmoidal dose-response curve (no constraints) using GraphPad Prism version 4.00 for Windows (GraphPad Software, San Diego Calif. USA, www.graphpad.com).

[2] = Determination of pharmacokinetics in rats following oral administration (plasma and brain); type: in vivo, rat; details: for Brain AUC / Brain Cmax / AUC / Cmax: 10 mg/kg oral gavage, solution; for AUC / Cmax: rat, plasma
Method: Potential FAAH inhibitors are formulated for oral (p.o.), intraperitoneal (i.p.) or intravenous (i.v.) delivery to rats. Formulated compounds are administered and the animals were sacrificed at pre-determined time points post dose. At sacrifice, blood samples are collected into EDTA plasma tubes and whole brains were snap frozen in liquid nitrogen. EDTA plasma was isolated from blood samples after centrifugation. Brain and plasma samples are stored at −80° C. prior to analysis. All samples (brain and plasma) are analyzed for the concentrations of test compound (FAAH inhibitor), metabolites of the test compound and endogenous fatty acid ethanolamide levels (including anandamide, oleoylethanolamide, and palmitoylethanolamide) by LC-MS/MS. Levels of these compounds are compared across time points to determine pharmacokinetic properties of the test compounds and partial pharmacological effects of inhibiting FAAH activity (including changes of fatty acid ethanolamide levels).
The pharmacokinetic properties of compounds provided herein were assessed in rats following oral administration as a solution. […] The solution of the test compound was administered to rats at a dose of 10 mg/kg via oral gavage.

FAAH = details: Kathuria 2003; Mor 2004; WO 2004/033422; cited from earlier work

SMILES	pIC50 [1]	Brain AUC [2]	Brain Cmax [2]	Crossing of the blood brain barrier ([2]; 10 mg/kg oral, conclusion from Table 2)	AUC [2]	Cmax [2]	Inhibition of FAAH activity (in words) (FAAH)
O=C(NCC1CCCCC1)Oc1ccc(C(=O)O)cc1 [Compound 4, 4-(Cyclohexylmethylcarbamoyloxy)benzoic acid]	> 7.00	483 ng·h/g	475 ng/g	does not substantially cross the blood brain barrier	8840 ng·h/mL	7720 ng/mL	
O=C(O)Cc1cccc(OC(=O)NCC2CCCCC2)c1 [Compound 7]	> 7.00						
NC(=O)c1cccc(-c2cccc(OC(=O)NC3CCCCC3)c2)c1							potent and selective inhibitors of FAAH activity
O=C(NCC1CCCCC1)Oc1cccc(C(=O)O)c1 [Compound 2, 3-(Cyclohexylmethylcarbamoyloxy)benzoic acid]	> 7.00				1700 ng·h/mL	1250 ng/mL	
NC(=O)c1cccc(-c2cccc(OC(=O)NC3CCCCC3)c2)c1 [KDS-4103, reference compound]		9,737 ng * hr/g	4,584 ng/g		6730 ng·h/mL	3160 ng/mL	
O=C(NCC1CCCCC1)Oc1cccc(-c2nnn[nH]2)c1 [Compound 11, 3-(1H-Tetrazol-5-yl)phenyl cyclohexylmethylcarbamate]	> 7.00						
